Assay results: US4636491A, “Renin inhibitory peptides having improved solubility” (Merck & Co., Inc., priority 1984, dated 1987)
pIC50, pKi: −log10 of the molar value. In brackets after ≈: the same amount, converted by molar mass. Where two headings read alike, the source gives them in different places. *1 amine or outer side, *2 acyl side, *3 side chain or, on linkers, in order; H or OH if unused. Where a SMILES comes first, the peptide text is derived from it. [ ]: non-standard residue; d: D form. The star is where a group is joined. ξ: configuration not given here. NH(3-guanidinomethylbenzyl) = NC(N)=NCc1cccc(CN*)c1; NH(3-OCH2COOH-benzyl) = O=C(O)COc1cccc(CN*)c1; X1 = NCc1cccc(CC(N[*:1])C(=O)[*:2])c1; Sta = CC(C)C[C@H](N)[C@@H](O)CC(=O)O; NHCH2CH2SO3H = O=S(=O)(O)CCN*; X4 = NC(Cc1cccc(CN*)c1)C(=O)O; X3 = [O-][n+]1ccc(CN*)cc1; ξPhg = NC(C(=O)O)c1ccccc1; Boc = CC(C)(C)OC(=O)*; X2 = NC(CN*)c1ccccn1

What was measured:
[1] = Solubility of the peptides in pH 7.4 buffer and in H2O; format: physicochemical
Protocol: (§1) Following the standard solid phase methodology described above in Example 1, additional inhibitory peptides of the present invention were prepared. The peptides prepared are set out in the following table. Satisfactory amino acid analyses were obtained by Spinco method for each listed peptide. Also included in the table is solubility data of three types from which the improved solubility characteristics of the peptides of the present invention may be judged.

Partition coefficient = format: physicochemical
Protocol: as §1

human kidney renin = biological target: T1, human kidney renin (Homo sapiens, UniProt P00797); assay: Inhibition of purified human kidney renin; format: biochemical; conditions: dissociation constant of the inhibited enzyme-inhibitor complex
T1 construct: human kidney renin purified as described in Bangham; from tissue; host or cells: human kidney
T1 sequence (P00797 67-406): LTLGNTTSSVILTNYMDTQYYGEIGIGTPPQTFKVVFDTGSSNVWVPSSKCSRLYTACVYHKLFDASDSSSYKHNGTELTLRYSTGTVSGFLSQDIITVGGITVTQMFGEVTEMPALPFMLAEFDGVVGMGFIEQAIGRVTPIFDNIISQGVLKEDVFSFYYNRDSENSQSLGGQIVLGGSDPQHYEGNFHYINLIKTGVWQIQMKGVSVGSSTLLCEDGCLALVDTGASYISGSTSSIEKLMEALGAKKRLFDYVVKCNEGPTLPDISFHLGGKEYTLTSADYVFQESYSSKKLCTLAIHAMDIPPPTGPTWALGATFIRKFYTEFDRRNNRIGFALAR
Protocol: (§2) Assays were carried out in order to determine the inhibitory potency of the peptides of the present invention. […] Another assay measured the inhibition of human kidney renin purified as described in Bangham, D. R., Robertson, I., Robinson, J. I. S., Robinson, C. J., and Tree, M., Clinical Science and Molecular Medicine, 48 (Supp. 2): 136s-159s (1975), and further purified by affinity chromatography on pepstatin-aminohexyl-Sepharase described in Poe, M., Wu., J. K., Florance, J. R., Radkey, J. A., Bennet, C. D., and Hoogsteen, K., J. Biol. Chem. 258:2209-2216 (1983). The assay was also in accordance with Poe et al. cited above. Further assays measured human plasma renin and dog plasma renin in accordance with procedures described in Biger et al, Nature, 303:81-84 (1983).
The results expressed as KI values refer to the dissociation constant of the inhibited enzyme-inhibitor complex. This KI value was obtained as described above.

human plasma renin = biological target: T2, human plasma renin (Homo sapiens, UniProt P00797); assay: Inhibition of human plasma renin; format: biochemical
T2 construct: Further assays measured human plasma renin and dog plasma renin; from tissue; host or cells: human plasma
T2 sequence (P00797 67-406): T1 sequence (P00797 67-406)
Protocol: as §2

dog plasma renin = biological target: T3, dog plasma renin (Canis lupus familiaris, UniProt Q6DYE7); assay: Inhibition of dog plasma renin; format: biochemical; conditions: for Dog Plasma, % inhibition at 1000: at 1000 .eta.M
T3 construct: Further assays measured human plasma renin and dog plasma renin; from tissue; host or cells: dog plasma
T3 sequence (Q6DYE7 66-403): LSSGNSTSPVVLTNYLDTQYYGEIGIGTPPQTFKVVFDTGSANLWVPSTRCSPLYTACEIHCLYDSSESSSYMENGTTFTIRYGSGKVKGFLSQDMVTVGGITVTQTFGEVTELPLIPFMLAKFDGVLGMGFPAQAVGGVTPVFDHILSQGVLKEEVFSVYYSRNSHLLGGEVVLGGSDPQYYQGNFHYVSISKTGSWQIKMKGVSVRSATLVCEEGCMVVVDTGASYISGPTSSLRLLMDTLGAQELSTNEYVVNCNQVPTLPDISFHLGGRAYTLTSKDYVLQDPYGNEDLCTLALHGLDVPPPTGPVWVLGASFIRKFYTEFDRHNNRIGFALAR
Protocol: as §2

nephrectomized rats = conditions: after the injection of hog renin into nephrectomized rats; cited from earlier work
[2] = water, H2O, read-out: H2O mg/ml (solubility)
[3] = pH 7.4, aqueous buffer, pH 7.4 Buffer mg/ml (solubility)

| Compound | Partition Coefficient (Partition coefficient) | pKi (human kidney renin) | solubility [1, 3] | solubility ([1]; water, H2O mg/ml (solubility)) | other results |
| --- | --- | --- | --- | --- | --- |
| CC(C)C[C@H](NC(=O)C[C@H](O)[C@H](CC(C)C)NC(=O)[C@H](Cc1c[nH]cn1)NC(=O)[C@H](Cc1ccccc1)NC(=O)OC(C)(C)C)C(=O)NCC(N)c1ccccn1 (stereo partly drawn) [Example 2] (Boc-FH[Sta]L-X2) | infinity |  | 0.32 mg/mL (≈ 404 µM) | 0.71 mg/mL (≈ 896 µM) |  |
| CC(C)C[C@H](NC(=O)C[C@H](O)[C@H](CC(C)C)NC(=O)[C@H](Cc1c[nH]cn1)NC(=O)[C@H](Cc1ccccc1)NC(=O)OC(C)(C)C)C(=O)NCc1cccc(CN=C(N)N)c1 [Example 3] (Boc-FH[Sta]L-{NH(3-guanidinomethylbenzyl)}) | 10.6 |  | 0.77 mg/mL (≈ 924 µM) | 2.46 mg/mL (≈ 2950 µM) |  |
| CC(C)C[C@H](NC(=O)C[C@H](O)[C@H](CC(C)C)NC(=O)[C@H](Cc1c[nH]cn1)NC(=O)[C@H](Cc1ccccc1)NC(=O)OC(C)(C)C)C(=O)NC(Cc1cccc(CN)c1)C(=O)O (stereo partly shown) [Example 4] (Boc-FH[Sta]L[X1]-OH) | 68.2 | 8.31 | 1.3 mg/mL (≈ 1530 µM) | 0.33 mg/mL (≈ 389 µM) |  |
| CC(C)C[C@H](NC(=O)C[C@H](O)[C@H](CC(C)C)NC(=O)[C@H](Cc1c[nH]cn1)NC(=O)[C@H](Cc1ccccc1)NC(=O)OC(C)(C)C)C(=O)NCc1cc[n+]([O-])cc1 [Example 7] (Boc-FH[Sta]L-X3) |  |  | 3.3 mg/mL (≈ 4240 µM) | 5.1 mg/mL (≈ 6550 µM) |  |
| CC(C)C[C@H](NC(=O)C[C@H](O)[C@H](CC(C)C)NC(=O)[C@H](Cc1c[nH]cn1)NC(=O)[C@H](Cc1ccccc1)NC(=O)OC(C)(C)C)C(=O)NC(C(=O)O)c1ccccc1 (stereo partly shown) [Example 8] (Boc-FH[Sta]L[ξPhg]-OH) | 16.5 | 6.00 |  |  | solubility ([1]; pH 7.4 buffer, pH 7.4, aqueous buffer, pH 7.4 buffer, read-out: pH 7.4 Buffer mg/ml (solubility)): 1.8 mg/mL (≈ 2230 µM); solubility [1, 2]: 0.6 mg/mL (≈ 744 µM); Human Plasma, % inhibition at (concentration not given) (human plasma renin): 44%; Dog Plasma, % inhibition at 1000 (dog plasma renin): 45% |
| CC(C)C[C@H](NC(=O)C[C@H](O)[C@H](CC(C)C)NC(=O)[C@H](Cc1c[nH]cn1)NC(=O)[C@H](Cc1ccccc1)NC(=O)OC(C)(C)C)C(=O)NCc1cccc(OCC(=O)O)c1 [Example 9] (Boc-FH[Sta]L-{NH(3-OCH2COOH-benzyl)}) | infinity |  | 1.5 mg/mL (≈ 1790 µM) | 0.23 mg/mL (≈ 275 µM) |  |
| pepstatin |  |  |  |  | blood pressure in vivo (nephrectomized rats): reduce blood pressure |

More lines, main results first:

| Partition Coefficient (Partition coefficient) | pKi (human kidney renin) | solubility [1, 3] | solubility ([1]; water, H2O mg/ml (solubility)) | Compound | other results |
| --- | --- | --- | --- | --- | --- |
| 2.1 | 8.62 |  |  | CC(C)C[C@H](NC(=O)C[C@H](O)[C@H](CC(C)C)NC(=O)[C@H](Cc1c[nH]cn1)NC(=O)[C@H](Cc1ccccc1)NC(=O)OC(C)(C)C)C(=O)NCCC(N)C(=O)O (single isomer, unassigned) [Example 5 (Isomer A)] | solubility [1, 2]: 1.72 mg/mL (≈ 2230 µM); Human Plasma, % inhibition at 1000 (human plasma renin; at 1000 .eta.M): 25%; Dog Plasma, % inhibition at 1000 (dog plasma renin; listed as 5 A): 15% |
| 10.7 | 5.66 |  |  | CC(C)C[C@H](NC(=O)C[C@H](O)[C@H](CC(C)C)NC(=O)[C@H](Cc1c[nH]cn1)NC(=O)[C@H](Cc1ccccc1)NC(=O)OC(C)(C)C)C(=O)NCCC(N)C(=O)O (single isomer, unassigned) [Example 5 (Isomer B)] | Human Plasma, % inhibition at (concentration not given) (human plasma renin): 0%; Dog Plasma, % inhibition at 1000 (dog plasma renin; listed as 5 B): 22% |
|  | 7.92 |  |  | CC(C)C[C@H](NC(=O)C[C@H](O)[C@H](CC(C)C)NC(=O)[C@H](Cc1c[nH]cn1)NC(=O)[C@H](Cc1ccccc1)NC(=O)OC(C)(C)C)C(=O)NCc1cccc(CC(N)C(=O)O)c1 (stereo partly drawn) [Example 6] (Boc-FH[Sta]L-X4) | Human Plasma, % inhibition at (concentration not given) (human plasma renin): 15%; pIC50 (dog plasma renin; read-out: Dog Plasma I50): 6.92 |
| 4.34 |  | > 9 mg/mL | > 9 mg/mL | CC(C)C[C@H](NC(=O)C[C@H](O)[C@H](CC(C)C)NC(=O)[C@H](Cc1c[nH]cn1)NC(=O)[C@H](Cc1ccccc1)NC(=O)OC(C)(C)C)C(=O)NCCS(=O)(=O)O [Example 10] (Boc-FH[Sta]L-NHCH2CH2SO3H) |  |
